Experimental data as given in patent US8912329B2 (priority 2009, dated 2014).

What was measured:
[1] = molecular target: EthR-VP16 (Mycobacterium bovis, UniProt Q7TVI1); test: cell-based; design: species or system M. bovis; conditions: 48 h, read-out: % EthR activity (w/o = 100%); ± std. dev. of the mean (n = 3)
[2] = system: Mycobacterium tuberculosis laboratory strain H37Rv; test: Growth inhibition / drug susceptibility testing of M. tuberculosis with MGIT 960 system, compounds combined with ethionamide; assay type: cell-based; design: key to growth inhibition of M. tuberculosis H37Rv (R/I/S): R: Resistance, no effect of combinatorial drug application; I: intermediate; S: sensitive; conditions: for growth inhibitory effect of compound alone on M. tuberculosis H37Rv: without ethionamide; for growth of M. tuberculosis H37Rv in the presence of sub-inhibitory ethionamide concentrations: ethionamide 0.16 and 5 μg/ml, 0.5 to 40.5 μMol compound
[3] = 250 mg oral; cited from earlier work
[4] = Example compound 0.5 μM + ethionamide 0.16 μg/ml
[5] = Example compound 0.5 μM + ethionamide 0.31 μg/ml
[6] = Example compound 0.5 μM + ethionamide 0.625 μg/ml
[7] = Example compound 0.5 μM + ethionamide 1.25 μg/ml
[8] = Example compound 0.5 μM + ethionamide 2.5 μg/ml
[9] = Example compound 0.5 μM + ethionamide 5 μg/ml
[10] = Example compound 0.5 μM, ethionamide 0 μg/ml
[11] = Example compound 1.5 μM + ethionamide 0.16 μg/ml
[12] = Example compound 1.5 μM + ethionamide 0.31 μg/ml
[13] = Example compound 1.5 μM + ethionamide 0.625 μg/ml
[14] = Example compound 1.5 μM + ethionamide 1.25 μg/ml
[15] = Example compound 1.5 μM + ethionamide 2.5 μg/ml
[16] = Example compound 1.5 μM + ethionamide 5 μg/ml
[17] = Example compound 1.5 μM, ethionamide 0 μg/ml
[18] = Example compound 4.5 μM + ethionamide 0.16 μg/ml
[19] = Example compound 4.5 μM + ethionamide 0.31 μg/ml
[20] = Example compound 4.5 μM + ethionamide 0.625 μg/ml
[21] = Example compound 4.5 μM + ethionamide 1.25 μg/ml
[22] = Example compound 4.5 μM + ethionamide 2.5 μg/ml
[23] = Example compound 4.5 μM + ethionamide 5 μg/ml
[24] = Example compound 4.5 μM, ethionamide 0 μg/ml
[25] = Example compound 13.5 μM + ethionamide 0.16 μg/ml
[26] = Example compound 13.5 μM + ethionamide 0.31 μg/ml
[27] = Example compound 13.5 μM + ethionamide 0.625 μg/ml
[28] = Example compound 13.5 μM + ethionamide 1.25 μg/ml
[29] = Example compound 13.5 μM + ethionamide 2.5 μg/ml
[30] = Example compound 13.5 μM + ethionamide 5 μg/ml
[31] = Example compound 13.5 μM, ethionamide 0 μg/ml
[32] = Example compound 40.5 μM + ethionamide 0.16 μg/ml
[33] = Example compound 40.5 μM + ethionamide 0.31 μg/ml
[34] = Example compound 40.5 μM + ethionamide 0.625 μg/ml
[35] = Example compound 40.5 μM + ethionamide 1.25 μg/ml
[36] = Example compound 40.5 μM + ethionamide 2.5 μg/ml
[37] = Example compound 40.5 μM + ethionamide 5 μg/ml
[38] = Example compound 40.5 μM, ethionamide 0 μg/ml

EthR-VP16, sequence (Q7TVI1 whole entry, looked up): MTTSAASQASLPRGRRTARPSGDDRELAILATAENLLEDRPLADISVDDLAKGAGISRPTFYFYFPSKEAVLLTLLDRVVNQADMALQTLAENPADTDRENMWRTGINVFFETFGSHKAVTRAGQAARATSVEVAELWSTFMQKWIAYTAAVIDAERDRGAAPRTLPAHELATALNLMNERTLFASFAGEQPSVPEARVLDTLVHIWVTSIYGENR

O=C(Cc1ccccc1)N1CCC(c2ccccc2)C1 (centres unmarked) [Example 17, 2-Phenyl-1-(3-phenylpyrrolidin-1-yl)ethan-1-one]
remaining activity at 0.5 µM [1]: 38.5 ± 8.47%
remaining activity at 1.5 µM [1]: 35.5 ± 7.81%
remaining activity at 3 µM [1]: 22.5 ± 4.94%
remaining activity at 6 µM [1]: 16.3 ± 3.58%
remaining activity at 15 µM [1]: 14.2 ± 3.13%
remaining activity at 30 µM [1]: 11.5 ± 8.52%
remaining activity at 60 µM [1]: 1.86 ± 0.4%
remaining activity at 300 µM [1]: 0.83 ± 0.18%
growth inhibition of M. tuberculosis H37Rv (R/I/S) [2, 4]: R
growth inhibition of M. tuberculosis H37Rv (R/I/S) [2, 5]: R
growth inhibition of M. tuberculosis H37Rv (R/I/S) [2, 6]: R
growth inhibition of M. tuberculosis H37Rv (R/I/S) [2, 7]: R
growth inhibition of M. tuberculosis H37Rv (R/I/S) [2, 8]: I
growth inhibition of M. tuberculosis H37Rv (R/I/S) [2, 9]: S
growth inhibition of M. tuberculosis H37Rv (R/I/S) [2, 10]: R
growth inhibition of M. tuberculosis H37Rv (R/I/S) [2, 11]: R
growth inhibition of M. tuberculosis H37Rv (R/I/S) [2, 12]: R
growth inhibition of M. tuberculosis H37Rv (R/I/S) [2, 13]: R
growth inhibition of M. tuberculosis H37Rv (R/I/S) [2, 14]: I
growth inhibition of M. tuberculosis H37Rv (R/I/S) [2, 15]: S
growth inhibition of M. tuberculosis H37Rv (R/I/S) [2, 16]: S
growth inhibition of M. tuberculosis H37Rv (R/I/S) [2, 17]: R
growth inhibition of M. tuberculosis H37Rv (R/I/S) [2, 18]: R
growth inhibition of M. tuberculosis H37Rv (R/I/S) [2, 19]: R
growth inhibition of M. tuberculosis H37Rv (R/I/S) [2, 20]: R
growth inhibition of M. tuberculosis H37Rv (R/I/S) [2, 21]: I
growth inhibition of M. tuberculosis H37Rv (R/I/S) [2, 22]: S
growth inhibition of M. tuberculosis H37Rv (R/I/S) [2, 23]: S
growth inhibition of M. tuberculosis H37Rv (R/I/S) [2, 24]: R
growth inhibition of M. tuberculosis H37Rv (R/I/S) [2, 25]: R
growth inhibition of M. tuberculosis H37Rv (R/I/S) [2, 26]: R
growth inhibition of M. tuberculosis H37Rv (R/I/S) [2, 27]: I
growth inhibition of M. tuberculosis H37Rv (R/I/S) [2, 28]: I
growth inhibition of M. tuberculosis H37Rv (R/I/S) [2, 29]: S
growth inhibition of M. tuberculosis H37Rv (R/I/S) [2, 30]: S
growth inhibition of M. tuberculosis H37Rv (R/I/S) [2, 31]: R
growth inhibition of M. tuberculosis H37Rv (R/I/S) [2, 32]: R
growth inhibition of M. tuberculosis H37Rv (R/I/S) [2, 33]: R
growth inhibition of M. tuberculosis H37Rv (R/I/S) [2, 34]: S
growth inhibition of M. tuberculosis H37Rv (R/I/S) [2, 35]: S
growth inhibition of M. tuberculosis H37Rv (R/I/S) [2, 36]: S
growth inhibition of M. tuberculosis H37Rv (R/I/S) [2, 37]: S
growth inhibition of M. tuberculosis H37Rv (R/I/S) [2, 38]: R
growth inhibitory effect of compound alone on M. tuberculosis H37Rv [2]: do not show any growth inhibitory effect
growth of M. tuberculosis H37Rv in the presence of sub-inhibitory ethionamide concentrations [2]: dose-dependently inhibited

O=C(CCc1ccccc1)N1CCC(c2ccccc2)C1 (centres unmarked) [Example 16, 3-Phenyl-1-(3-phenylpyrrolidin-1-yl)propan-1-one]
remaining activity at 0.5 µM [1]: 28.3 ± 1.26%
remaining activity at 1.5 µM [1]: 27.2 ± 0.46%
remaining activity at 3 µM [1]: 19.9 ± 0.43%
remaining activity at 6 µM [1]: 13.5 ± 2.96%
remaining activity at 15 µM [1]: 11.8 ± 2.6%
remaining activity at 30 µM [1]: 11.4 ± 2.51%
remaining activity at 60 µM [1]: 2.82 ± 0.62%
remaining activity at 300 µM [1]: 0.85 ± 0.18%
growth inhibition of M. tuberculosis H37Rv (R/I/S) [2, 4]: R
growth inhibition of M. tuberculosis H37Rv (R/I/S) [2, 5]: R
growth inhibition of M. tuberculosis H37Rv (R/I/S) [2, 6]: I
growth inhibition of M. tuberculosis H37Rv (R/I/S) [2, 7]: S
growth inhibition of M. tuberculosis H37Rv (R/I/S) [2, 8]: S
growth inhibition of M. tuberculosis H37Rv (R/I/S) [2, 9]: S
growth inhibition of M. tuberculosis H37Rv (R/I/S) [2, 10]: R
growth inhibition of M. tuberculosis H37Rv (R/I/S) [2, 11]: R
growth inhibition of M. tuberculosis H37Rv (R/I/S) [2, 12]: I
growth inhibition of M. tuberculosis H37Rv (R/I/S) [2, 13]: S
growth inhibition of M. tuberculosis H37Rv (R/I/S) [2, 14]: S
growth inhibition of M. tuberculosis H37Rv (R/I/S) [2, 15]: S
growth inhibition of M. tuberculosis H37Rv (R/I/S) [2, 16]: S
growth inhibition of M. tuberculosis H37Rv (R/I/S) [2, 17]: R
growth inhibition of M. tuberculosis H37Rv (R/I/S) [2, 18]: R
growth inhibition of M. tuberculosis H37Rv (R/I/S) [2, 19]: I
growth inhibition of M. tuberculosis H37Rv (R/I/S) [2, 20]: S
growth inhibition of M. tuberculosis H37Rv (R/I/S) [2, 21]: S
growth inhibition of M. tuberculosis H37Rv (R/I/S) [2, 22]: S
growth inhibition of M. tuberculosis H37Rv (R/I/S) [2, 23]: S
growth inhibition of M. tuberculosis H37Rv (R/I/S) [2, 24]: R
growth inhibition of M. tuberculosis H37Rv (R/I/S) [2, 25]: I
growth inhibition of M. tuberculosis H37Rv (R/I/S) [2, 26]: S
growth inhibition of M. tuberculosis H37Rv (R/I/S) [2, 27]: S
growth inhibition of M. tuberculosis H37Rv (R/I/S) [2, 28]: S
growth inhibition of M. tuberculosis H37Rv (R/I/S) [2, 29]: S
growth inhibition of M. tuberculosis H37Rv (R/I/S) [2, 30]: S
growth inhibition of M. tuberculosis H37Rv (R/I/S) [2, 31]: R
growth inhibition of M. tuberculosis H37Rv (R/I/S) [2, 32]: I
growth inhibition of M. tuberculosis H37Rv (R/I/S) [2, 33]: I
growth inhibition of M. tuberculosis H37Rv (R/I/S) [2, 34]: S
growth inhibition of M. tuberculosis H37Rv (R/I/S) [2, 35]: S
growth inhibition of M. tuberculosis H37Rv (R/I/S) [2, 36]: S
growth inhibition of M. tuberculosis H37Rv (R/I/S) [2, 37]: S
growth inhibition of M. tuberculosis H37Rv (R/I/S) [2, 38]: R
growth inhibitory effect of compound alone on M. tuberculosis H37Rv [2]: do not show any growth inhibitory effect
growth of M. tuberculosis H37Rv in the presence of sub-inhibitory ethionamide concentrations [2]: dose-dependently inhibited

CCc1cc(C(N)=S)ccn1 [Ethionamide, 2-ethylthioiso-nicotinamide, reference compound]
growth inhibition of M. tuberculosis H37Rv (R/I/S) ([2]; ethionamide 0.16 μg/ml alone (Example compound 0 μM)): R
growth inhibition of M. tuberculosis H37Rv (R/I/S) ([2]; ethionamide 0.31 μg/ml alone (Example compound 0 μM)): R
growth inhibition of M. tuberculosis H37Rv (R/I/S) ([2]; ethionamide 0.625 μg/ml alone (Example compound 0 μM)): R
growth inhibition of M. tuberculosis H37Rv (R/I/S) ([2]; ethionamide 1.25 μg/ml alone (Example compound 0 μM)): R
growth inhibition of M. tuberculosis H37Rv (R/I/S) ([2]; ethionamide 2.5 μg/ml alone (Example compound 0 μM)): I
growth inhibition of M. tuberculosis H37Rv (R/I/S) ([2]; ethionamide 5 μg/ml alone (Example compound 0 μM)): S
cmax [3]: 2 µg/mL
t1/2 [3]: 2 h
